Laboratory results as given in US20100099561A1, “HETEROBICYCLIC ALKYLTHIO-BRIDGED ISOXAZOLINES” (E.I. DU PONT DE NEMOURS AND COMPANY, priority 2008, published 2010).

Legend:
Assay type in all cases: in vivo
[1] = test system: barnyardgrass (Echinochloa crus-galli); assay: Test B flooded paddy test, barnyardgrass; conditions: Flood
Method in brief: (§1)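 Step one: raise plants to 2 leaves. Step two: flood pots 3 cm over the soil and apply compound into the water, keeping this depth. Step three: after 13–15 greenhouse days, score visually versus controls, 0–100, where 100 means complete control.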

[2] = test system: wheat (Triticum aestivum); assay: Test A preemergence, wheat; conditions: 0 to 100 scale (0 no effect, 100 complete control)
Method in brief: (§2)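 Sow seeds in loam–sand blend; spray soil directly (pre) and treat emerged one- to two-leaf plants 2–10 cm tall (post) with compound in surfactant-containing non-phytotoxic solvent. Keep in greenhouse about ten days. Score injury visually against controls from 0 to 100.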

[3] = test system: barnyardgrass (Echinochloa crus-galli); assay: Test A preemergence, barnyardgrass; conditions: 0 to 100 scale (0 no effect, 100 complete control)
Method in brief: as §2

[4] = test system: ducksalad (Heteranthera limosa); assay: Test B flooded paddy test, ducksalad; conditions: Flood, scale 0 to 100
Method in brief: as §1

corn (Zea mays) [5] = assay: Test A postemergence, corn; conditions: 0 to 100 scale (0 no effect, 100 complete control)
Method in brief: as §2

[6] = test system: morningglory (Ipomoea spp.); assay: Test A postemergence, morningglory; conditions: 0 to 100 scale (0 no effect, 100 complete control)
Method in brief: as §2

[7] = test system: umbrella sedge (Cyperus difformis); assay: Test B flooded paddy test, umbrella sedge; conditions: Flood, scale 0 to 100
Method in brief: as §1

[8] = test system: morningglory (Ipomoea spp.); assay: Test A preemergence, morningglory; conditions: 0 to 100 scale (0 no effect, 100 complete control)
Method in brief: as §2

[9] = test system: velvetleaf (Abutilon theophrasti); assay: Test A postemergence, velvetleaf; conditions: 0 to 100 scale (0 no effect, 100 complete control)
Method in brief: as §2

[10] = test system: pigweed (Amaranthus retroflexus); assay: Test A preemergence, pigweed; conditions: 0 to 100 scale (0 no effect, 100 complete control)
Method in brief: as §2

[11] = test system: large crabgrass (Digitaria sanguinalis); assay: Test A preemergence, large crabgrass; conditions: 0 to 100 scale (0 no effect, 100 complete control)
Method in brief: as §2

[12] = test system: wheat (Triticum aestivum); assay: Test A postemergence, wheat; conditions: 0 to 100 scale (0 no effect, 100 complete control)
Method in brief: as §2

corn (Zea mays) [13] = assay: Test A preemergence, corn; conditions: 0 to 100 scale (0 no effect, 100 complete control)
Method in brief: as §2

rice (Oryza sativa) = assay: Test B flooded paddy test, rice; conditions: Flood, scale 0 to 100
Method in brief: as §1

[14] = test system: large crabgrass (Digitaria sanguinalis); assay: Test A postemergence, large crabgrass; conditions: 0 to 100 scale (0 no effect, 100 complete control)
Method in brief: as §2

[15] = test system: giant foxtail (Setaria faberi); assay: Test A preemergence, giant foxtail; conditions: 0 to 100 scale (0 no effect, 100 complete control)
Method in brief: as §2

[16] = test system: pigweed (Amaranthus retroflexus); assay: Test A postemergence, pigweed; conditions: 0 to 100 scale (0 no effect, 100 complete control)
Method in brief: as §2

[17] = test system: velvetleaf (Abutilon theophrasti); assay: Test A preemergence, velvetleaf; conditions: 0 to 100 scale (0 no effect, 100 complete control)
Method in brief: as §2

[18] = test system: giant foxtail (Setaria faberi); assay: Test A postemergence, giant foxtail; conditions: 0 to 100 scale (0 no effect, 100 complete control)
Method in brief: as §2

[19] = test system: barnyardgrass (Echinochloa crus-galli); assay: Test A postemergence, barnyardgrass; conditions: 0 to 100 scale (0 no effect, 100 complete control)
Method in brief: as §2

[20] = 250 g ai/ha, scale 0 to 100 (0 no effect, 100 complete control)

**Q.** Which results are given for `CC1(C)CC([S+]([O-])Cc2c(C(F)(F)F)nc3cccnn3c2=O)=NO1` (stereo not drawn) [Compound 46]?
**A.** Plant response rating, Barnyardgrass ([1]; 31 g ai/ha, scale 0 to 100): 0; Plant response rating, Barnyardgrass ([1]; 62 g ai/ha, scale 0 to 100): 0; Plant response rating, Barnyardgrass ([1]; 125 g ai/ha, scale 0 to 100): 0; Plant response rating, Barnyardgrass [1, 20]: 0; Plant response rating, Wheat ([2]; 125 g ai/ha): 0; Plant response rating, Wheat ([2]; 500 g ai/ha): 0; Plant response rating, Barnyardgrass ([3]; 125 g ai/ha): 0; Plant response rating, Barnyardgrass ([3]; 500 g ai/ha): 0; Plant response rating, Ducksalad ([4]; 31 g ai/ha): 0; Plant response rating, Ducksalad ([4]; 62 g ai/ha): 0; Plant response rating, Ducksalad ([4]; 125 g ai/ha): 0; Plant response rating, Ducksalad ([4]; 250 g ai/ha): 0; Plant response rating, Corn (corn (Zea mays) [5]; 125 g ai/ha): 0; Plant response rating, Corn (corn (Zea mays) [5]; 500 g ai/ha): 0; Plant response rating, Morningglory ([6]; 125 g ai/ha): 0; Plant response rating, Morningglory ([6]; 500 g ai/ha): 0; Plant response rating, Sedge, Umbrella ([7]; 31 g ai/ha): 0; Plant response rating, Sedge, Umbrella ([7]; 62 g ai/ha): 0; Plant response rating, Sedge, Umbrella ([7]; 125 g ai/ha): 0; Plant response rating, Sedge, Umbrella ([7]; 250 g ai/ha): 0; Plant response rating, Morningglory ([8]; 125 g ai/ha): 0; Plant response rating, Morningglory ([8]; 500 g ai/ha): 0; Plant response rating, Velvetleaf ([9]; 125 g ai/ha): 0; Plant response rating, Velvetleaf ([9]; 500 g ai/ha): 0; Plant response rating, Pigweed ([10]; 125 g ai/ha): 0; Plant response rating, Pigweed ([10]; 500 g ai/ha): 0; Plant response rating, Crabgrass, Large ([11]; 125 g ai/ha): 0; Plant response rating, Crabgrass, Large ([11]; 500 g ai/ha): 0; Plant response rating, Wheat ([12]; 125 g ai/ha): 0; Plant response rating, Wheat ([12]; 500 g ai/ha): 0; Plant response rating, Corn (corn (Zea mays) [13]; 125 g ai/ha): 0; Plant response rating, Corn (corn (Zea mays) [13]; 500 g ai/ha): 0; Plant response rating, Rice (rice (Oryza sativa); 31 g ai/ha): 0; Plant response rating, Rice (rice (Oryza sativa); 62 g ai/ha): 0; Plant response rating, Rice (rice (Oryza sativa); 125 g ai/ha): 0; Plant response rating, Rice (rice (Oryza sativa); 250 g ai/ha): 0; Plant response rating, Crabgrass, Large ([14]; 125 g ai/ha): 0; Plant response rating, Crabgrass, Large ([14]; 500 g ai/ha): 0; Plant response rating, Foxtail, Giant ([15]; 125 g ai/ha): 0; Plant response rating, Foxtail, Giant ([15]; 500 g ai/ha): 0; Plant response rating, Pigweed ([16]; 125 g ai/ha): 0; Plant response rating, Pigweed ([16]; 500 g ai/ha): 0; Plant response rating, Velvetleaf ([17]; 125 g ai/ha): 0; Plant response rating, Velvetleaf ([17]; 500 g ai/ha): 20; Plant response rating, Foxtail, Giant ([18]; 125 g ai/ha): 0; Plant response rating, Foxtail, Giant ([18]; 500 g ai/ha): 0; Plant response rating, Barnyardgrass ([19]; 125 g ai/ha): 0; Plant response rating, Barnyardgrass ([19]; 500 g ai/ha): 0

**Q.** Which results are given for `CCn1c(=O)c(CS(=O)(=O)C2=NOC(C)(C)C2)nc2cccnc21` [Compound 57]?
**A.** Plant response rating, Barnyardgrass ([1]; 31 g ai/ha, scale 0 to 100): 0; Plant response rating, Barnyardgrass ([1]; 62 g ai/ha, scale 0 to 100): 0; Plant response rating, Barnyardgrass ([1]; 125 g ai/ha, scale 0 to 100): 0; Plant response rating, Barnyardgrass [1, 20]: 0; Plant response rating, Wheat ([2]; 125 g ai/ha): 0; Plant response rating, Wheat ([2]; 500 g ai/ha): 0; Plant response rating, Barnyardgrass ([3]; 125 g ai/ha): 0; Plant response rating, Barnyardgrass ([3]; 500 g ai/ha): 40; Plant response rating, Ducksalad ([4]; 31 g ai/ha): 0; Plant response rating, Ducksalad ([4]; 62 g ai/ha): 0; Plant response rating, Ducksalad ([4]; 125 g ai/ha): 0; Plant response rating, Ducksalad ([4]; 250 g ai/ha): 0; Plant response rating, Corn (corn (Zea mays) [5]; 125 g ai/ha): 0; Plant response rating, Corn (corn (Zea mays) [5]; 500 g ai/ha): 0; Plant response rating, Morningglory ([6]; 125 g ai/ha): 0; Plant response rating, Morningglory ([6]; 500 g ai/ha): 0; Plant response rating, Sedge, Umbrella ([7]; 31 g ai/ha): 0; Plant response rating, Sedge, Umbrella ([7]; 62 g ai/ha): 0; Plant response rating, Sedge, Umbrella ([7]; 125 g ai/ha): 0; Plant response rating, Sedge, Umbrella ([7]; 250 g ai/ha): 0; Plant response rating, Morningglory ([8]; 125 g ai/ha): 0; Plant response rating, Morningglory ([8]; 500 g ai/ha): 0; Plant response rating, Velvetleaf ([9]; 125 g ai/ha): 0; Plant response rating, Velvetleaf ([9]; 500 g ai/ha): 0; Plant response rating, Pigweed ([10]; 125 g ai/ha): 0; Plant response rating, Pigweed ([10]; 500 g ai/ha): 0; Plant response rating, Crabgrass, Large ([11]; 125 g ai/ha): 40; Plant response rating, Crabgrass, Large ([11]; 500 g ai/ha): 50; Plant response rating, Wheat ([12]; 125 g ai/ha): 0; Plant response rating, Wheat ([12]; 500 g ai/ha): 0; Plant response rating, Corn (corn (Zea mays) [13]; 125 g ai/ha): 0; Plant response rating, Corn (corn (Zea mays) [13]; 500 g ai/ha): 0; Plant response rating, Rice (rice (Oryza sativa); 31 g ai/ha): 0; Plant response rating, Rice (rice (Oryza sativa); 62 g ai/ha): 0; Plant response rating, Rice (rice (Oryza sativa); 125 g ai/ha): 0; Plant response rating, Rice (rice (Oryza sativa); 250 g ai/ha): 0; Plant response rating, Crabgrass, Large ([14]; 125 g ai/ha): 10; Plant response rating, Crabgrass, Large ([14]; 500 g ai/ha): 40; Plant response rating, Foxtail, Giant ([15]; 125 g ai/ha): 0; Plant response rating, Foxtail, Giant ([15]; 500 g ai/ha): 40; Plant response rating, Pigweed ([16]; 125 g ai/ha): 0; Plant response rating, Pigweed ([16]; 500 g ai/ha): 0; Plant response rating, Velvetleaf ([17]; 125 g ai/ha): 0; Plant response rating, Velvetleaf ([17]; 500 g ai/ha): 0; Plant response rating, Foxtail, Giant ([18]; 125 g ai/ha): 0; Plant response rating, Foxtail, Giant ([18]; 500 g ai/ha): 30; Plant response rating, Barnyardgrass ([19]; 125 g ai/ha): 0; Plant response rating, Barnyardgrass ([19]; 500 g ai/ha): 30
